Test results from patent publication US7417025B2, “Use of poly-α2,8-sialic acid mimetic peptides to modulate NCAM functions” (Centre National de la Recherche Scientifique, priority 2002, dated 2008).

Key:
mAb 735 = test: Competitive ELISA of biotinylated peptide-BSA conjugates on anti-PSA mAb; assay type: binding; conditions: for Binding of peptide to mAb 735 in competitive ELISA (percentage of binding): biotinylated peptide-BSA conjugate
From the text: • mAb 735 and 30H12 • MaxiSorp™ plates (NUNC) for coating the antibody: ELISA plates • microtiter plates (NUNC) for peptide dilution: dilution plates • Biotinylated peptide-BSA conjugates prepared as above described • Extravidin alkaline phosphatase-avidin conjugate (SIGMA E2636) • p-nitrophenyl-phosphatase alkaline substrate (SIGMA 104-105) 2.1.2) Buffers • PBS pH 7.4 • Blocking solution: 0.5% BSA in PBS • TBS • TBST: TBS containing 0.05% Tween 20 • Extravidin alkaline phosphatase-avidin conjugate solution: 1/5000 in TBST • Alkaline phosphatase substrate solution; 1 tablet in 5 ml 50 mM NaHCO3, 1 mM MgCl2 solution, […]) Method
(§1) Maxisorp™ plate wells were coated with 100 μl mAb solution (25 μg/ml) for 2 h at room temperature. The control wells of the ELISA plates were only coated with the blocking solution. In parallel, the peptide-BSA conjugate dilution plates were blocked with 200 μl blocking solution for 2 h. The antibody coated wells and the control wells were blocked with 200 μl blocking solution for 1 h. In parallel the peptide-BSA conjugate dilution plates were washed 6 times with TBST and 120 μl TBST was added to the wells. An appropriate volume of peptide-BSA conjugate solution was added to the first well and the volume adjusted to 140 μl with TBST. The peptide-BSA conjugate in well one was diluted in the ratio 1/7 by taking 20 μl out of the first well and transferring into the second also to achieve the total volume of 140 μl. This was repeated for the remaining wells. The peptide-BSA conjugate dilutions for the control wells were done the same way. The blocked ELISA plates were washed 6 times with TBST and the peptide-BSA conjugate dilutions or 100 μl of the mixed competitor solution was added to the wells. After incubation for 1 h, the wells were washed 10 times with TBST and 100 μl of the alkaline phosphatase substrate solution was added to the wells. The plates were read out after 10 to 60 min using a microplate reader at 405 nm.
(§2) The specificity of peptide p21 (SEQ ID NO: 1) was investigated in a competition ELISA using biotinylated p21-BSA conjugate and a randomized variant of p21 (p22) conjugate as a control. The results presented in Tables X and XI are expressed as percentage of binding by comparison with peptide p21 at the highest concentration (9.45 10^-5 M) which corresponds to 100% binding.

BSA = BSA (Bos taurus, UniProt P02769); test: Peptide-BSA conjugate ELISA, control wells coated only with blocking solution (BSA); assay type: binding; conditions: biotinylated peptide-BSA conjugate, BSA-blocked wells, no mAb
From the text: • mAb 735 and 30H12 • MaxiSorp™ plates (NUNC) for coating the antibody: ELISA plates • microtiter plates (NUNC) for peptide dilution: dilution plates • Biotinylated peptide-BSA conjugates prepared as above described • Extravidin alkaline phosphatase-avidin conjugate (SIGMA E2636) • p-nitrophenyl-phosphatase alkaline substrate (SIGMA 104-105) 2.1.2) Buffers • PBS pH 7.4 • Blocking solution: 0.5% BSA in PBS • TBS • TBST: TBS containing 0.05% Tween 20 • Extravidin alkaline phosphatase-avidin conjugate solution: 1/5000 in TBST • Alkaline phosphatase substrate solution; 1 tablet in 5 ml 50 mM NaHCO3, 1 mM MgCl2 solution, pH 9.6. • mixed competitor solution: 1 mM colominic acid with a peptide-BSA conjugate gradient in TBST 2.1.3) Method
as §1, §2

[1] = peptide-BSA conjugate, in words

Sequence of BSA (P02769 25-607): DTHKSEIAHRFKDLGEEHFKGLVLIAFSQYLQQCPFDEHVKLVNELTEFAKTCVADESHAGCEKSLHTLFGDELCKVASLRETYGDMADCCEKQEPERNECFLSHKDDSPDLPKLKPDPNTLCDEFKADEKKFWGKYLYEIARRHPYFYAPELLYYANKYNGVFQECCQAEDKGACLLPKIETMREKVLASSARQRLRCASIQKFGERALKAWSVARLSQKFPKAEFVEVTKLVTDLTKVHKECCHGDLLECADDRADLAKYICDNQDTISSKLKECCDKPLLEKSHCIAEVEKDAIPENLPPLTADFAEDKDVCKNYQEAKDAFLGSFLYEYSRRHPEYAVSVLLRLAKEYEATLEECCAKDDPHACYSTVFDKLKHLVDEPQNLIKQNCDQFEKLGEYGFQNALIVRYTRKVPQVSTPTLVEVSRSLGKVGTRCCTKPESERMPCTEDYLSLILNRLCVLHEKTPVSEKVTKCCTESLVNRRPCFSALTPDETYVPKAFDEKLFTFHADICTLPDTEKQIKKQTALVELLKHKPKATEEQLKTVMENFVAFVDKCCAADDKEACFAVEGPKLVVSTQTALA

- Binding of peptide to mAb 735 in competitive ELISA (percentage of binding) (mAb 735; peptide 1.62 10^−9 M, + chondroitin sulfate C): 2 ± 0%
- Binding of peptide to mAb 735 in competitive ELISA (percentage of binding) (mAb 735; peptide 1.62 10^−9 M, + colominic acid 1 mM): 0 ± 0%
- Binding of peptide to mAb 735 in competitive ELISA (percentage of binding) (mAb 735; peptide 1.62 10^−9 M, no competitor): 0 ± 0%
- Binding of peptide to mAb 735 in competitive ELISA (percentage of binding) (mAb 735; peptide 1.67 10^−5 M, + chondroitin sulfate C): 8 ± 1%
- Binding of peptide to mAb 735 in competitive ELISA (percentage of binding) (mAb 735; peptide 1.67 10^−5 M, + colominic acid 1 mM): 5 ± 0%
- Binding of peptide to mAb 735 in competitive ELISA (percentage of binding) (mAb 735; peptide 1.67 10^−5 M, no competitor): 9 ± 0%
- Binding of peptide to mAb 735 in competitive ELISA (percentage of binding) (mAb 735; peptide 2.86 10^−9 M, + chondroitin sulfate C): 2 ± 0%
- Binding of peptide to mAb 735 in competitive ELISA (percentage of binding) (mAb 735; peptide 2.86 10^−9 M, + colominic acid 1 mM): 0 ± 0%
- Binding of peptide to mAb 735 in competitive ELISA (percentage of binding) (mAb 735; peptide 2.86 10^−9 M, no competitor): 0 ± 0%
- Binding of peptide to mAb 735 in competitive ELISA (percentage of binding) (mAb 735; peptide 2.94 10^−6 M, + chondroitin sulfate C): 3 ± 1%
- Binding of peptide to mAb 735 in competitive ELISA (percentage of binding) (mAb 735; peptide 2.94 10^−6 M, + colominic acid 1 mM): 0 ± 0%
- Binding of peptide to mAb 735 in competitive ELISA (percentage of binding) (mAb 735; peptide 2.94 10^−6 M, no competitor): 1 ± 0%
- Binding of peptide to mAb 735 in competitive ELISA (percentage of binding) (mAb 735; peptide 5.04 10^−10 M, + chondroitin sulfate C): 2 ± 0%
- Binding of peptide to mAb 735 in competitive ELISA (percentage of binding) (mAb 735; peptide 5.04 10^−10 M, + colominic acid 1 mM): 0 ± 0%
- Binding of peptide to mAb 735 in competitive ELISA (percentage of binding) (mAb 735; peptide 5.04 10^−10 M, no competitor): 0 ± 0%
- Binding of peptide to mAb 735 in competitive ELISA (percentage of binding) (mAb 735; peptide 5.20 10^−7 M, + chondroitin sulfate C): 2 ± 0%
- Binding of peptide to mAb 735 in competitive ELISA (percentage of binding) (mAb 735; peptide 5.20 10^−7 M, + colominic acid 1 mM): 0 ± 0%
- Binding of peptide to mAb 735 in competitive ELISA (percentage of binding) (mAb 735; peptide 5.20 10^−7 M, no competitor): 0 ± 0%
- Binding of peptide to mAb 735 in competitive ELISA (percentage of binding) (mAb 735; peptide 8.89 10^−11 M, + chondroitin sulfate C): 2 ± 0%
- Binding of peptide to mAb 735 in competitive ELISA (percentage of binding) (mAb 735; peptide 8.89 10^−11 M, + colominic acid 1 mM): 0 ± 0%
- Binding of peptide to mAb 735 in competitive ELISA (percentage of binding) (mAb 735; peptide 8.89 10^−11 M, no competitor): 0 ± 0%
- Binding of peptide to mAb 735 in competitive ELISA (percentage of binding) (mAb 735; peptide 9.27 10^−8 M, + chondroitin sulfate C): 2 ± 1%
- Binding of peptide to mAb 735 in competitive ELISA (percentage of binding) (mAb 735; peptide 9.27 10^−8 M, + colominic acid 1 mM): 0 ± 0%
- Binding of peptide to mAb 735 in competitive ELISA (percentage of binding) (mAb 735; peptide 9.27 10^−8 M, no competitor): 0 ± 0%
- Binding of peptide to mAb 735 in competitive ELISA (percentage of binding) (mAb 735; peptide 9.45 10^−5 M, + chondroitin sulfate C): 29 ± 0%
- Binding of peptide to mAb 735 in competitive ELISA (percentage of binding) (mAb 735; peptide 9.45 10^−5 M, + colominic acid 1 mM): 27 ± 0%
- Binding of peptide to mAb 735 in competitive ELISA (percentage of binding) (mAb 735; peptide 9.45 10^−5 M, no competitor): 32 ± 1%
- Binding of peptide to mAb 735 (mAb 735; [1]): no binding
- Effect of colominic acid or chondroitin sulfate C on binding to mAb 735 (mAb 735; [1]): no differences were observed
- Binding of peptide to BSA control wells (percentage of binding) (BSA; peptide 1.62 10^−9 M): 0 ± 0%
- Binding of peptide to BSA control wells (percentage of binding) (BSA; peptide 1.67 10^−5 M): 1 ± 1%
- Binding of peptide to BSA control wells (percentage of binding) (BSA; peptide 2.86 10^−9 M): 0 ± 0%
- Binding of peptide to BSA control wells (percentage of binding) (BSA; peptide 2.94 10^−6 M): 0 ± 0%
- Binding of peptide to BSA control wells (percentage of binding) (BSA; peptide 5.04 10^−10 M): 0 ± 0%
- Binding of peptide to BSA control wells (percentage of binding) (BSA; peptide 5.20 10^−7 M): 0 ± 0%
- Binding of peptide to BSA control wells (percentage of binding) (BSA; peptide 8.89 10^−11 M): 0 ± 0%
- Binding of peptide to BSA control wells (percentage of binding) (BSA; peptide 9.27 10^−8 M): 0 ± 0%
- Binding of peptide to BSA control wells (percentage of binding) (BSA; peptide 9.45 10^−5 M): 3 ± 1%
Sequence: PDHIFVFSPDLP [p22, reference compound]
